{"source": "patent US4965280A", "about": "“Antifungal carbinols” (E. I. Du Pont de Nemours and Company, priority 1989, dated 1990)", "key": {"[1]": {"system": "Candida albicans ATCC 11651", "experiment": "In vitro antifungal MIC, microtiter broth dilution", "settings": "Candida albicans, ATCC11651, 24 h, read-out: MIC values, C. albicans, 30°, 24 hours"}, "Puccinia recondita": {"system": "Puccinia recondita", "experiment": "Example G wheat leaf rust", "assay_type": "in vivo", "settings": "read-out: disease control rating, Ex. G"}, "Pyricularia oryzae": {"system": "Pyricularia oryzae", "experiment": "whole plant or invertebrate", "assay_type": "in vivo", "settings": "Pyricularia oryzae, 120 h; for pest or weed control at 20 ppm: read-out: disease control rating, Ex. E, 20 PPM; for pest or weed control at 100 ppm: read-out: disease control rating, Ex. E, 100 PPM"}, "[2]": {"system": "Cercosporidium personatum", "experiment": "Example B Peanut Late Leafspot", "assay_type": "in vivo", "settings": "Nothopassalora personata, read-out: disease control rating, Ex. B", "experimental": "(§1) The test compounds were dissolved in acetone in an amount equal to 6% of the final volume and then suspended at a concentration of 100 or 20 ppm in purified water containing 250 ppm of the surfactant TREM 014 (polyhydric alcohol esters). This suspension was sprayed to the point of run-off on peanut seedlings."}, "[3]": {"system": "Aspergillus fumigatus ATCC 28214", "experiment": "In vitro antifungal MIC, microtiter broth dilution", "settings": "Aspergillus fumigatus, ATCC28214, 24 h, read-out: MIC values, A. fumigatus, 30°, 24 hours"}, "[4]": {"system": "Erysiphe graminis f. sp. tritici", "experiment": "Example D wheat powdery mildew", "assay_type": "in vivo", "settings": "Blumeria graminis, 144 h, read-out: disease control rating, Ex. D", "experimental": "as §1, with “wheat” for “peanut”"}, "Venturia inaequalis": {"system": "Venturia inaequalis", "experiment": "Example A apple scab", "assay_type": "in vivo", "settings": "read-out: disease control rating, Ex. A", "experimental": "as §1, with “apple seedings.” for “peanut seedlings.”"}, "Plasmorpara viticola": {"system": "Plasmorpara viticola", "experiment": "Example I grape downy mildew", "assay_type": "in vivo", "settings": "read-out: disease control rating, Ex. I", "experimental": "as §1, with “grape” for “peanut”"}, "Phytophthora infestans": {"system": "Phytophthora infestans", "experiment": "whole plant or invertebrate", "assay_type": "in vivo", "settings": "Phytophthora infestans, in Solanum lycopersicum, read-out: disease control rating, Ex. H, 100 PPM"}, "Rhizoctonia solani": {"system": "Rhizoctonia solani", "experiment": "Example F rice sheath blight", "assay_type": "in vivo", "settings": "Rhizoctonia solani, 144 h, read-out: disease control rating, Ex. F", "experimental": "as §1, with “rice” for “peanut”"}, "Botrytis cinerea": {"system": "Botrytis cinerea", "experiment": "Example C bean grey mold", "assay_type": "in vivo", "settings": "Botrytis cinerea, 24 h, read-out: disease control rating, Ex. C", "experimental": "as §1, with “broad bean” for “peanut”"}}, "data": [{"smiles": "C=C(c1ccc([S+](C)[O-])cc1)C(O)(Cn1cncn1)c1ccc(F)cc1", "note": "(centres unmarked) [Example 170]", "values": [{"measurement": "MIC", "setting": "[1]", "value": 1.6, "unit": "µg/mL"}, {"measurement": "pest or weed control at 20 ppm", "setting": "Puccinia recondita", "value": 100, "unit": "%"}, {"measurement": "pest or weed control at 20 ppm", "setting": "Pyricularia oryzae", "value": 0, "unit": "%"}, {"measurement": "pest or weed control at 100 ppm", "setting": "Pyricularia oryzae", "value": 10, "unit": "%"}, {"measurement": "pest or weed control at 20 ppm", "setting": "[2]", "value": 69, "unit": "%"}, {"measurement": "MIC", "setting": "[3]", "value": 100, "unit": "µg/mL"}, {"measurement": "pest or weed control at 20 ppm", "setting": "[4]", "value": 95, "unit": "%"}, {"measurement": "pest or weed control at 20 ppm", "setting": "Venturia inaequalis", "value": 19, "unit": "%"}, {"measurement": "pest or weed control at 100 ppm", "setting": "Plasmorpara viticola", "value": 0, "unit": "%"}, {"measurement": "pest or weed control at 100 ppm", "setting": "Phytophthora infestans", "value": 0, "unit": "%"}, {"measurement": "pest or weed control at 20 ppm", "setting": "Rhizoctonia solani", "value": 0, "unit": "%"}, {"measurement": "pest or weed control at 100 ppm", "setting": "Rhizoctonia solani", "value": 0, "unit": "%"}, {"measurement": "pest or weed control at 20 ppm", "setting": "Botrytis cinerea", "value": 32, "unit": "%"}, {"measurement": "pest or weed control at 100 ppm", "setting": "Botrytis cinerea", "value": 20, "unit": "%"}]}, {"smiles": "C=C(c1ccc(S(C)(=O)=O)cc1)C(O)(Cn1cncn1)c1ccc(F)cc1", "note": "(centres unmarked) [Example 177]", "values": [{"measurement": "MIC", "setting": "[1]", "value": 3.2, "unit": "µg/mL"}, {"measurement": "pest or weed control at 20 ppm", "setting": "Puccinia recondita", "value": 100, "unit": "%"}, {"measurement": "pest or weed control at 20 ppm", "setting": "Pyricularia oryzae", "value": 0, "unit": "%"}, {"measurement": "pest or weed control at 100 ppm", "setting": "Pyricularia oryzae", "value": 10, "unit": "%"}, {"measurement": "pest or weed control at 20 ppm", "setting": "[2]", "value": 26, "unit": "%"}, {"measurement": "MIC", "setting": "[3]", "value": "> 100", "unit": "µg/mL"}, {"measurement": "pest or weed control at 20 ppm", "setting": "[4]", "value": 46, "unit": "%"}, {"measurement": "pest or weed control at 20 ppm", "setting": "Venturia inaequalis", "value": 82, "unit": "%"}, {"measurement": "pest or weed control at 100 ppm", "setting": "Plasmorpara viticola", "value": 0, "unit": "%"}, {"measurement": "pest or weed control at 100 ppm", "setting": "Phytophthora infestans", "value": 0, "unit": "%"}, {"measurement": "pest or weed control at 20 ppm", "setting": "Rhizoctonia solani", "value": 0, "unit": "%"}, {"measurement": "pest or weed control at 100 ppm", "setting": "Rhizoctonia solani", "value": 0, "unit": "%"}, {"measurement": "pest or weed control at 20 ppm", "setting": "Botrytis cinerea", "value": 50, "unit": "%"}, {"measurement": "pest or weed control at 100 ppm", "setting": "Botrytis cinerea", "value": 26, "unit": "%"}]}, {"smiles": "OC(Cn1cncn1)(C(=Cc1ccccc1)c1ccccc1)c1ccc(F)cc1", "note": "(centres unmarked) [Example 291]", "values": [{"measurement": "MIC", "setting": "[1]", "value": 0.2, "unit": "µg/mL"}, {"measurement": "pest or weed control at 20 ppm", "setting": "Puccinia recondita", "value": 73, "unit": "%"}, {"measurement": "pest or weed control at 20 ppm", "setting": "Pyricularia oryzae", "value": 1, "unit": "%"}, {"measurement": "pest or weed control at 100 ppm", "setting": "Pyricularia oryzae", "value": 1, "unit": "%"}, {"measurement": "pest or weed control at 20 ppm", "setting": "[2]", "value": 26, "unit": "%"}, {"measurement": "MIC", "setting": "[3]", "value": 100, "unit": "µg/mL"}, {"measurement": "pest or weed control at 20 ppm", "setting": "[4]", "value": 83, "unit": "%"}, {"measurement": "pest or weed control at 20 ppm", "setting": "Venturia inaequalis", "value": 32, "unit": "%"}, {"measurement": "pest or weed control at 100 ppm", "setting": "Plasmorpara viticola", "value": 78, "unit": "%"}, {"measurement": "pest or weed control at 100 ppm", "setting": "Phytophthora infestans", "value": 24, "unit": "%"}, {"measurement": "pest or weed control at 20 ppm", "setting": "Rhizoctonia solani", "value": 0, "unit": "%"}, {"measurement": "pest or weed control at 100 ppm", "setting": "Rhizoctonia solani", "value": 0, "unit": "%"}, {"measurement": "pest or weed control at 20 ppm", "setting": "Botrytis cinerea", "value": 6, "unit": "%"}, {"measurement": "pest or weed control at 100 ppm", "setting": "Botrytis cinerea", "value": 81, "unit": "%"}]}, {"smiles": "C=C(CN(C)C)C(O)(Cn1cncn1)c1ccc(F)cc1", "note": "(centres unmarked) [Example 454]", "values": [{"measurement": "MIC", "setting": "[1]", "value": 100, "unit": "µg/mL"}, {"measurement": "pest or weed control at 100 ppm", "setting": "Puccinia recondita", "value": 0, "unit": "%"}, {"measurement": "pest or weed control at 100 ppm", "setting": "Pyricularia oryzae", "value": 0, "unit": "%"}, {"measurement": "pest or weed control at 100 ppm", "setting": "[2]", "value": 0, "unit": "%"}, {"measurement": "MIC", "setting": "[3]", "value": "> 100", "unit": "µg/mL"}, {"measurement": "pest or weed control at 100 ppm", "setting": "[4]", "value": 22, "unit": "%"}, {"measurement": "pest or weed control at 100 ppm", "setting": "Venturia inaequalis", "value": 0, "unit": "%"}, {"measurement": "pest or weed control at 100 ppm", "setting": "Plasmorpara viticola", "value": 0, "unit": "%"}, {"measurement": "pest or weed control at 100 ppm", "setting": "Phytophthora infestans", "value": 0, "unit": "%"}, {"measurement": "pest or weed control at 100 ppm", "setting": "Rhizoctonia solani", "value": 0, "unit": "%"}, {"measurement": "pest or weed control at 100 ppm", "setting": "Botrytis cinerea", "value": 0, "unit": "%"}]}, {"smiles": "C=C(c1ccc(F)cc1)C(O)(Cn1cncn1)c1ccc(OC)cc1", "note": "(centres unmarked) [Example 663]", "values": [{"measurement": "pest or weed control at 100 ppm", "setting": "Puccinia recondita", "value": 100, "unit": "%"}, {"measurement": "pest or weed control at 100 ppm", "setting": "Pyricularia oryzae", "value": 57, "unit": "%"}, {"measurement": "pest or weed control at 100 ppm", "setting": "[2]", "value": 100, "unit": "%"}, {"measurement": "pest or weed control at 100 ppm", "setting": "[4]", "value": 99, "unit": "%"}, {"measurement": "pest or weed control at 100 ppm", "setting": "Venturia inaequalis", "value": 42, "unit": "%"}, {"measurement": "pest or weed control at 100 ppm", "setting": "Plasmorpara viticola", "value": 39, "unit": "%"}, {"measurement": "pest or weed control at 100 ppm", "setting": "Phytophthora infestans", "value": 0, "unit": "%"}, {"measurement": "pest or weed control at 100 ppm", "setting": "Rhizoctonia solani", "value": 36, "unit": "%"}, {"measurement": "pest or weed control at 100 ppm", "setting": "Botrytis cinerea", "value": 95, "unit": "%"}]}]}
